According to US20220241422A1, “DRUG DELIVERY COMPOSITION AND PHARMACEUTICAL COMPOSITION” (Nihon University, priority 2019, published 2022):

Legend:
[1] = tested on: ALS model mice (G93A SOD1 transgenic mouse); test: Oral administration test for NAC in ALS model mice (Rota-Rod motor function, survival time); type: in vivo; conditions: oral administration from 15 weeks of age, vs water-administered group
Text: NAC is considered to be effective for treating ALS as a result of its effect of removing active oxygen. Thus, NAC was used as a test drug for ALS treatment.
As a test animal, G93A SOD1 transgenic mouse (G93A), which is one of the ALS model animals, was used. […] The research group of the present inventors has already reported the characteristics of the change (progression) in the motor dysfunction of this G93A (Miyagisi H et al., J Pharmacol Sci., 118, 225-236 (2012)).
NAC was orally administered to G93A from 15 weeks of age (105 days of age) after the onset of ALS, and the motor function and the survival time were examined. Water was orally administered as a negative control.
The motor function was evaluated using Rota-Rod (Muromachi Kikai Co., Ltd.). in order to acclimatize mice to Rota-Rod, mice were trained from 3 weeks (12 weeks of age) before the day of measurement initiation. The rotation speed of Rota-Rod was set to 24 times/minute. The measurement was performed twice a week, and the time (seconds) taken until the mouse fell from Rota-Rod was measured. The cut-off value was set to 300 seconds, while in the case of falling, the average value of three times was used as the score for that day, and measurements were taken up to 133 days after birth.

[2] = tested on: ALS model mice (G93A); test: Nasal administration test for NAC/PEG-PCL-Tat in ALS model mice (Rota-Rod motor function); type: in vivo, mouse; conditions: nasal administration 105 to 120 days of age, 5 days a week; compared with untreated
Procedure: A drug solution was prepared by dissolving NAC in HEPES buffer solution (pH 7.4) at a concentration of 50 mg/mL.
The drug solution was administered to G93A for a period from 105 days of age (15 weeks of age) after birth to 120 days of age, at a frequency of 5 days a week. […] Under inhalation anesthesia using a mask in which the vicinity of the nostrils could be opened or closed, 2 μL each of the drug solution was alternately administered to the right and left nasal cavities every 30 seconds using a micropipette (see FIG. 3). Only male mice were used for the test, and in principle, administration was performed in the morning (10:00 to 12:00).
The motor function was evaluated using Rota-Rod (Muromachi Kikai Co., Ltd.). In order to acclimatize mice to Rota-Rod, mice were trained from 3 weeks (12 weeks of age) before the day of measurement initiation. The rotation speed of Rota-Rod was set to 24 times/minute. The measurement was performed twice a week, and the time (seconds) taken until the mouse fell from Rota-Rod was measured. The cut-off value was set to 300 seconds, while in the case of falling, the average value of three times was used as the score for that day, and measurements were taken up to 122 days after birth.

CC(=O)N[C@@H](CS)C(=O)O [NAC, N-Acetyl-Cysteine]
motor function (Rota-Rod) [1]: no difference
survival time [1]: no difference
suppression of hypanakinesia (Rota-Rod, FIG. 4A) [2]: hypanakinesia was suppressed
